Measurements as given in patent publication US10988743B2, “Coryneform bacterial transformant and method for producing 4-aminobenzoic acid or salt thereof using same” (RESEARCH INSTITUTE OF INNOVATIVE TECHNOLOGY FOR THE EARTH, priority 2016, dated 2021).
Entries after “also recorded” stand apart in the source; their conditions may differ.

Experiments:
Assay type in all cases: cell-based
[1] = tested on: Saccharomyces cerevisiae W303; test: Growth inhibition by para-aminobenzoic acid in aerobic culture (OD610); details: aerobic shaking culture 30° C.
Experimental: (§1) Experiments about growth inhibition by para-aminobenzoic acid in aerobic culture were carried out, regarding Corynebacterium glutamicum, Escherichia coli, Streptomyces lividans, Pseudomonas putida, and Saccharomyces cerevisiae. No example of Pseudomonas putida S12 used in the present experiment has been reported to be a para-aminobenzoic acid producing host, but it was used as a comparative example, since it has been reported to be a solvent resistant bacterium and could be considered to have excellent resistance to para-aminobenzoic acid.
Saccharomyces cerevisiae W303 was applied to YEPD-agar plate [containing 2% polypeptone, 1% yeast extract, 2% glucose, and 1.5% agar] and was incubated at 30° C. for 20 hours in a dark place. Saccharomyces cerevisiae grown on the plate described above was inoculated in the YEPD-liquid medium [containing 2% polypeptone, 1% yeast extract, and 2% glucose], and aerobic shaking culture was carried out at 30° C. for 13 hours. Saccharomyces cerevisiae grown under the above-described conditions was inoculated in 100 ml of YEPD-liquid medium so that the initial bacterial cell concentration OD610=0.05. […] The growth of bacterial cells was determined by measuring OD610.
(§2) How the addition of para-aminobenzoic acid to medium influenced aerobic growth was analyzed, and the results are shown in FIG. 1.

[2] = tested on: Corynebacterium glutamicum strain R; test: as above; details: aerobic shaking culture 33° C.
Experimental: as §1
Corynebacterium glutamicum strain R was applied to an A-agar plate containing glucose at 4%, and was incubated at 33° C. for 15 hours in a dark place. One platinum loop of Corynebacterium glutamicum grown on the plate described above was inoculated in a test tube having therein 10 ml of the A-liquid medium containing of glucose at 4%, and was subjected to aerobic shaking culture at 33° C. for 15 hours. Corynebacterium glutamicum grown under the above-described conditions was inoculated in 10 ml of the A-liquid medium containing glucose at 4% so that the initial bacterial cell concentration OD610=0.05. […] The growth of bacterial cells was determined by measuring OD610.
as §2

[3] = tested on: Corynebacterium glutamicum strain R; test: Influence of para-aminobenzoic acid on glucose consumption rate (jar fermenter); details: 0, 50, 100 or 200 mM para-aminobenzoic acid, 5% glucose, 33° C., pH 7.0
Experimental: Influences of para-aminobenzoic acid on the glucose consumption rate were examined by a method described below, using Corynebacterium glutamicum strain R.
After a wild strain of Corynebacterium glutamicum was inoculated in 10 ml of the A-liquid medium containing 2% glucose, aerobic shaking culture was carried out at 33° C. for 18 hours. After the same strain was inoculated in 100 ml of the A-liquid medium containing 2% glucose, aerobic shaking culture was carried out at 33° C. for 12 hours. […]
Bacterial cells of the strain grown under the above-described conditions were collected by centrifugation (4° C., 5000×g, 10 minutes), and the bacterial cells thus obtained were washed with 0.9% sodium chloride aqueous solution once. […] The glucose concentration in the reaction solution was monitored by using a glucose sensor.

Pseudomonas putida S12 = test: Growth inhibition by para-aminobenzoic acid in aerobic culture (OD610)
Experimental: as §1
Pseudomonas putida S12 was applied to the LB-agar plate, and was incubated at 30° C. for 15 hours in a dark place. Pseudomonas putida grown on the plate described above was inoculated in the LB-liquid medium, and aerobic shaking culture was carried out at 30° C. for 13 hours. Pseudomonas putida grown under the above-described conditions was inoculated in 100 ml of LB-liquid medium so that the initial bacterial cell concentration OD610=0.05, simultaneously, para-aminobenzoic acid was added so that the final concentrations thereof became 0, 100, 200, 300 mM, and aerobic shaking culture was carried out at 30° C. The growth of bacterial cells was determined by measuring absorbance of OD610.
as §2

[4] = tested on: Streptomyces lividans 1326; test: as above; details: for growth of Streptomyces lividans 1326: aerobic shaking culture 28° C.
Experimental: as §1
Streptomyces lividans 1326 was applied to LB-agar plate, and was incubated at 28° C. for 24 hours in a dark place. Streptomyces lividans grown on the plate described above was inoculated in LB-liquid medium with a coil spring, and aerobic shaking culture was carried out at 28° C. for 24 hours. Streptomyces lividans grown under the above-described conditions was inoculated in 10 ml of LB-liquid medium with a coil spring so that the initial bacterial cell concentration OD610=0.2. Simultaneously, para-aminobenzoic acid was added so that the final concentrations thereof became 0, 100, 200, 300 mM, and aerobic shaking culture was carried out at 28° C. The growth of bacterial cells was determined by measuring OD610.
as §2

Escherichia coli JM109 = test: as above; details: aerobic shaking culture 37° C.
Experimental: as §1
Escherichia coli JM109 was applied to LB-agar plate [containing 1% polypeptone, 0.5% yeast extract, 0.5% sodium chloride, and 1.5% agar], and was incubated at 37° C. for 15 hours in a dark place. Escherichia coli grown on the plate described above was inoculated in LB-liquid medium [containing 1% polypeptone, 0.5% yeast extract, and 0.5% sodium chloride], and was subjected to aerobic shaking culture at 37° C. for 13 hours. Escherichia coli grown under the above-described conditions was inoculated in 100 ml of LB-liquid medium so that the initial bacterial cell concentration OD610=0.05. […] The growth of bacterial cells was determined by measuring OD610.
as §2

Nc1ccc(C(=O)O)cc1 [para-aminobenzoic acid, 4-aminobenzoic acid]
growth of Saccharomyces cerevisiae W303 ([1]; 200 mM para-aminobenzoic acid): strongly inhibited | growth of Saccharomyces cerevisiae W303 ([1]; 300 mM para-aminobenzoic acid): extremely strongly inhibited; also recorded: substantially completely inhibited | growth of Corynebacterium glutamicum strain R ([2]; 300 mM para-aminobenzoic acid): able to grow | growth of Corynebacterium glutamicum ([2]; 400 mM para-aminobenzoic acid): able to grow | saccharide (glucose) consumption rate of Corynebacterium glutamicum [3]: no substantial decrease | growth of Pseudomonas putida S12 (Pseudomonas putida S12; 100 mM para-aminobenzoic acid, aerobic shaking culture 30° C.): substantially completely inhibited | growth of Pseudomonas putida (Pseudomonas putida S12; 300 mM para-aminobenzoic acid): substantially completely inhibited | growth of Streptomyces lividans 1326 ([4]; 100 mM para-aminobenzoic acid): significantly inhibited | growth of Streptomyces lividans 1326 ([4]; 200 mM para-aminobenzoic acid): substantially completely inhibited | growth of Streptomyces lividans ([4]; 300 mM para-aminobenzoic acid): substantially completely inhibited | growth of Escherichia coli JM109 (Escherichia coli JM109; 100 mM para-aminobenzoic acid): significantly inhibited | growth of Escherichia coli JM109 (Escherichia coli JM109; 300 mM para-aminobenzoic acid): substantially completely inhibited
